Literature values, collected in US6447807B1, “Potassium (-)-hydroxycitric acid methods for pharmaceutical preparations for stable and controlled delivery” (priority 1999, dated 2002).

Settings: single large oral dose, or two divided oral doses totaling one fourth of it; animals fed a high-sugar diet

O=C(O)CC(O)(C(=O)O)C(O)C(=O)O (single isomer, unassigned; (-)) [HCA, (−)-Hydroxycitric acid]
reduction in food consumption: ≥ 10%
